# Data published in patent US20180326055A1, “NANOSTRUCTURE” (RIKEN, priority 2017, published 2018).
# System: HeLa cell
# Test: Delivery of PI by nanocapsule into cells (fluorescent microscope)
# Assay type: cell-based
# Settings: incubated 1 hour
# Procedure: PI-encapsulating nanocapsule was prepared in the same manner as described in Example 2. The PI-encapsulating nanocapsule dispersion was incubated with HeLa cell for 1 hour and washed with a buffer solution several times to remove the nanocapsule and free PI outside completely. The location of PI was evaluated by fluorescent microscope observation. PI alone incubated with HeLa cell for 1 hour was used as a negative control.
compound,measurement,value
"CC[N+](C)(CC)CCC[n+]1c(-c2ccccc2)c2cc(N)ccc2c2ccc(N)cc21.[I-].[I-] [PI, propidium iodide]",uptake of PI by cells,not taken up by cells
